Laboratory results taken from ChEMBL document CHEMBL3885861, “Open TG-GATES”.

Organism: Rattus norvegicus
Experiment: Open TG-GATES - Regimen: Single
Assay type: toxicity, organism-based, Sprague-Dawley
Parameters: regimen Single, gender Male, age 6 weeks
Conditions: in vivo, po, route gavage; for APTT / Bas / Eos / Fbg / Hb / Ht / Lym / MCH / MCHC / MCV / Mono / Neu / PT / Plat / RBC / Ret / WBC: tissue Blood; for KIDNEY_L / KIDNEY_R / KIDNEY_TOTAL: tissue Kidney; for LIVER: tissue Liver; for A/G / ALP / ALT / AST / BUN / CRE / Ca / Cl / DBIL / GLC / IP / K / LDH / Na / PL / RALB / TBIL / TC / TG / TP / gamma-GTP: tissue Plasma
[1] = 0 mg/kg, 3 h, dose level Control
[2] = 0 mg/kg, 6 h, dose level Control
[3] = 0 mg/kg, 9 h, dose level Control
[4] = 0 mg/kg, 24 h, dose level Control

## CC1=C(/C=C/C(C)=C/C=C/C(C)=C/CO)C(C)(C)CCC1 [RETINOL]
[1]
  TERMINAL_BW: 195.7 g
  APTT: 22 s
  Bas: 0%
  Eos: 0.8%
  Fbg: 294.8 mg/dL
  Hb: 13.3 g/dL
  Ht: 38.7%
  Lym: 79.4%
  MCH: 21.4 pg
  MCHC: 34.5%
  MCV: 62.2 fL
  Mono: 2%
  Neu: 16.8%
  PT: 15.8 s
  Plat: 108.5 x10_4/uL
  RBC: 621.4 x10_4/ul
  Ret: 8.9%
  WBC: 97.5 x10_2/uL
  KIDNEY_L: 0.9 g
  KIDNEY_R: 0.9 g
  KIDNEY_TOTAL: 1.8 g
  LIVER: 9 g
  A/G: 1.3
  ALP: 1760.6 IU/L
  ALT: 48 IU/L
  AST: 83.6 IU/L
  BUN: 12.8 mg/dL
  CRE: 0.2 mg/dL
  Ca: 10.6 mg/dL
  Cl: 107.6 meq/L
  DBIL: 0 mg/dL
  GLC: 181 mg/dL
  IP: 8.4 mg/dL
  K: 3.8 meq/L
  LDH: 265.2 IU/L
  Na: 142.2 meq/L
  PL: 148.6 mg/dL
  RALB: 3.2 g/dL
  TBIL: 0.012 mg/dL
  TC: 77 mg/dL
  TG: 58.6 mg/dL
  TP: 5.6 g/dL
  gamma-GTP: 2.8 IU/L
[2]
  TERMINAL_BW: 199.1 g
  APTT: 21.6 s
  Bas: 0%
  Eos: 0.6%
  Fbg: 309.6 mg/dL
  Hb: 13.5 g/dL
  Ht: 38.8%
  Lym: 77%
  MCH: 21.6 pg
  MCHC: 34.9%
  MCV: 61.8 fL
  Mono: 3%
  Neu: 18.8%
  PT: 15.7 s
  Plat: 114.9 x10_4/uL
  RBC: 628.2 x10_4/ul
  Ret: 8.5%
  WBC: 113.2 x10_2/uL
  KIDNEY_L: 1 g
  KIDNEY_R: 1 g
  KIDNEY_TOTAL: 1.9 g
  LIVER: 9.2 g
  A/G: 1.3
  ALP: 1700 IU/L
  ALT: 36.8 IU/L
  AST: 67.8 IU/L
  BUN: 10.6 mg/dL
  CRE: 0.1 mg/dL
  Ca: 10.9 mg/dL
  Cl: 106.4 meq/L
  DBIL: 0.014 mg/dL
  GLC: 181.4 mg/dL
  IP: 9.9 mg/dL
  K: 4.5 meq/L
  LDH: 223.6 IU/L
  Na: 142 meq/L
  PL: 152 mg/dL
  RALB: 3.2 g/dL
  TBIL: 0.022 mg/dL
  TC: 80.6 mg/dL
  TG: 79.6 mg/dL
  TP: 5.5 g/dL
  gamma-GTP: 1.2 IU/L
[3]
  TERMINAL_BW: 198.5 g
  APTT: 21.2 s
  Bas: 0%
  Eos: 0.6%
  Fbg: 303.2 mg/dL
  Hb: 13.1 g/dL
  Ht: 38.3%
  Lym: 81.4%
  MCH: 21.6 pg
  MCHC: 34.3%
  MCV: 63 fL
  Mono: 2.6%
  Neu: 15%
  PT: 15.8 s
  Plat: 122.4 x10_4/uL
  RBC: 608.2 x10_4/ul
  Ret: 7.9%
  WBC: 88.4 x10_2/uL
  KIDNEY_L: 0.9 g
  KIDNEY_R: 0.9 g
  KIDNEY_TOTAL: 1.9 g
  LIVER: 8.3 g
  A/G: 1.2
  ALP: 1691.8 IU/L
  ALT: 33.8 IU/L
  AST: 72.2 IU/L
  BUN: 10 mg/dL
  CRE: 0.1 mg/dL
  Ca: 10.8 mg/dL
  Cl: 107.8 meq/L
  DBIL: 0 mg/dL
  GLC: 183 mg/dL
  IP: 10.8 mg/dL
  K: 4.4 meq/L
  LDH: 302 IU/L
  Na: 142 meq/L
  PL: 131.2 mg/dL
  RALB: 2.9 g/dL
  TBIL: 0.018 mg/dL
  TC: 73.4 mg/dL
  TG: 52.2 mg/dL
  TP: 5.4 g/dL
  gamma-GTP: 4.4 IU/L
[4]
  TERMINAL_BW: 205.1 g
  APTT: 20.8 s
  Bas: 0%
  Eos: 0.8%
  Fbg: 294 mg/dL
  Hb: 13.1 g/dL
  Ht: 37.7%
  Lym: 79.4%
  MCH: 21.9 pg
  MCHC: 34.8%
  MCV: 63.2 fL
  Mono: 2.6%
  Neu: 16.6%
  PT: 16.1 s
  Plat: 119.1 x10_4/uL
  RBC: 598.2 x10_4/ul
  Ret: 7.8%
  WBC: 85.8 x10_2/uL
  KIDNEY_L: 0.9 g
  KIDNEY_R: 0.9 g
  KIDNEY_TOTAL: 1.9 g
  LIVER: 9.7 g
  A/G: 1.3
  ALP: 1692.4 IU/L
  ALT: 41.8 IU/L
  AST: 71.8 IU/L
  BUN: 17.6 mg/dL
  CRE: 0.2 mg/dL
  Ca: 10.7 mg/dL
  Cl: 105.6 meq/L
  DBIL: 0.006 mg/dL
  GLC: 181.6 mg/dL
  IP: 6.4 mg/dL
  K: 4.3 meq/L
  LDH: 245.8 IU/L
  Na: 141.2 meq/L
  PL: 154.2 mg/dL
  RALB: 3.1 g/dL
  TBIL: 0.016 mg/dL
  TC: 79.6 mg/dL
  TG: 79.2 mg/dL
  TP: 5.5 g/dL
  gamma-GTP: 1.2 IU/L
10 mg/kg, 3 h, dose level Low
  TERMINAL_BW: 201.8 g
  APTT: 21.9 s
  Bas: 0%
  Eos: 0.8%
  Fbg: 307.4 mg/dL
  Hb: 13.1 g/dL
  Ht: 37.7%
  Lym: 81.4%
  MCH: 21.5 pg
  MCHC: 34.6%
  MCV: 62.2 fL
  Mono: 2.6%
  Neu: 14.8%
  PT: 15.9 s
  Plat: 124.2 x10_4/uL
  RBC: 606.4 x10_4/ul
  Ret: 8.8%
  WBC: 95.9 x10_2/uL
  KIDNEY_L: 0.9 g
  KIDNEY_R: 0.9 g
  KIDNEY_TOTAL: 1.8 g
  LIVER: 9.3 g
  A/G: 1.3
  ALP: 1940 IU/L
  ALT: 41.2 IU/L
  AST: 75.2 IU/L
  BUN: 13.4 mg/dL
  CRE: 0.1 mg/dL
  Ca: 10.8 mg/dL
  Cl: 106.6 meq/L
  DBIL: 0 mg/dL
  GLC: 171.6 mg/dL
  IP: 8.6 mg/dL
  K: 4.1 meq/L
  LDH: 253.6 IU/L
  Na: 141.6 meq/L
  PL: 160.6 mg/dL
  RALB: 3.2 g/dL
  TBIL: 0.006 mg/dL
  TC: 81.2 mg/dL
  TG: 123.4 mg/dL
  TP: 5.6 g/dL
  gamma-GTP: 2.2 IU/L
10 mg/kg, 6 h, dose level Low
  TERMINAL_BW: 200 g
  APTT: 21 s
  Bas: 0%
  Eos: 1%
  Fbg: 312 mg/dL
  Hb: 13.5 g/dL
  Ht: 39.4%
  Lym: 80.4%
  MCH: 21.4 pg
  MCHC: 34.3%
  MCV: 62.3 fL
  Mono: 2.6%
  Neu: 15.4%
  PT: 15.6 s
  Plat: 119.1 x10_4/uL
  RBC: 632.2 x10_4/ul
  Ret: 8.1%
  WBC: 81.2 x10_2/uL
  KIDNEY_L: 0.9 g
  KIDNEY_R: 0.9 g
  KIDNEY_TOTAL: 1.9 g
  LIVER: 8.6 g
  A/G: 1.3
  ALP: 1760 IU/L
  ALT: 35.8 IU/L
  AST: 69.2 IU/L
  BUN: 9.4 mg/dL
  CRE: 0.1 mg/dL
  Ca: 11 mg/dL
  Cl: 107.4 meq/L
  DBIL: 0.008 mg/dL
  GLC: 180 mg/dL
  IP: 10.3 mg/dL
  K: 4.3 meq/L
  LDH: 223 IU/L
  Na: 142.8 meq/L
  PL: 143.8 mg/dL
  RALB: 3.1 g/dL
  TBIL: 0.016 mg/dL
  TC: 74.4 mg/dL
  TG: 98.4 mg/dL
  TP: 5.4 g/dL
  gamma-GTP: 0.8 IU/L
10 mg/kg, 9 h, dose level Low
  TERMINAL_BW: 196.8 g
  APTT: 21.8 s
  Bas: 0%
  Eos: 0.6%
  Fbg: 296.8 mg/dL
  Hb: 13.2 g/dL
  Ht: 38.3%
  Lym: 78%
  MCH: 21.6 pg
  MCHC: 34.4%
  MCV: 62.9 fL
  Mono: 2.4%
  Neu: 18.4%
  PT: 15.6 s
  Plat: 128.6 x10_4/uL
  RBC: 610.2 x10_4/ul
  Ret: 7.6%
  WBC: 92.3 x10_2/uL
  KIDNEY_L: 0.9 g
  KIDNEY_R: 0.9 g
  KIDNEY_TOTAL: 1.8 g
  LIVER: 7.8 g
  A/G: 1.3
  ALP: 1939.6 IU/L
  ALT: 34.8 IU/L
  AST: 70.6 IU/L
  BUN: 9.6 mg/dL
  CRE: 0.1 mg/dL
  Ca: 10.9 mg/dL
  Cl: 107.4 meq/L
  DBIL: 0.004 mg/dL
  GLC: 187 mg/dL
  IP: 10.6 mg/dL
  K: 4 meq/L
  LDH: 242.8 IU/L
  Na: 141.4 meq/L
  PL: 127.4 mg/dL
  RALB: 3 g/dL
  TBIL: 0.012 mg/dL
  TC: 69.2 mg/dL
  TG: 50.2 mg/dL
  TP: 5.3 g/dL
  gamma-GTP: 2.8 IU/L
10 mg/kg, 24 h, dose level Low
  TERMINAL_BW: 208.4 g
  APTT: 21.5 s
  Bas: 0%
  Eos: 1%
  Fbg: 273.4 mg/dL
  Hb: 13.2 g/dL
  Ht: 38.4%
  Lym: 80.2%
  MCH: 21.4 pg
  MCHC: 34.5%
  MCV: 62.2 fL
  Mono: 3.2%
  Neu: 15%
  PT: 16.2 s
  Plat: 123.1 x10_4/uL
  RBC: 618 x10_4/ul
  Ret: 7.5%
  WBC: 81 x10_2/uL
  KIDNEY_L: 1 g
  KIDNEY_R: 1 g
  KIDNEY_TOTAL: 2 g
  LIVER: 9.8 g
  A/G: 1.4
  ALP: 1455.4 IU/L
  ALT: 44.6 IU/L
  AST: 78.4 IU/L
  BUN: 16.8 mg/dL
  CRE: 0.2 mg/dL
  Ca: 10.6 mg/dL
  Cl: 106.8 meq/L
  DBIL: 0.002 mg/dL
  GLC: 187.4 mg/dL
  IP: 6.9 mg/dL
  K: 4.5 meq/L
  LDH: 318.8 IU/L
  Na: 141.6 meq/L
  PL: 135.2 mg/dL
  RALB: 3.1 g/dL
  TBIL: 0.002 mg/dL
  TC: 65 mg/dL
  TG: 114.6 mg/dL
  TP: 5.4 g/dL
  gamma-GTP: 1.6 IU/L
